Reference: ChEMBL document CHEMBL5252649, “CRBN ligand expansion for hematopoietic prostaglandin D2 synthase (H-PGDS) targeting PROTAC design and their in vitro ADME profiles” (Bioorg Med Chem, 2023)
≈ marks a conversion by molar mass, not a printed value.

Columns and labels:
[1] = Apparent permeability coefficient, Papp of the compound at pH 7.4 incubated for 4 hrs by UPLC/MS/MS analysis; format: ADME; conditions: for Papp at 4 h: not told, pH 7.4
[2] = Metabolic stability of the compound in human liver microsomes incubated for 10 mins in presence of NADPH by UPLC/MS/MS analysis; format: ADME, Microsome; conditions: read-out: Stability
[3] = Solubility of the compound in PBS buffer at 100 uM at pH 7.4 by UPLC/MS/MS analysis; format: physicochemical
[4] = Lipophilicity, logD of the compound by UPLC analysis; format: physicochemical; conditions: octanol/water
[5] = Metabolic stability of the compound in human liver microsomes incubated for 60 mins in presence of NADPH by UPLC/MS/MS analysis; format: ADME, Microsome; conditions: read-out: Stability
[6] = target: Protein cereblon/Hematopoietic prostaglandin D synthase (Homo sapiens, UniProt O60760+Q96SW2); test: PROTAC activity at CRBN/H-PGDS in human KU812 cells assessed as induction of H-PGDS degradation by measuring decrease in H-PGDS protein expression incubated for 24 hrs by western blot analysis; format: cell-based; conditions: for DC50: ku812 cell line; for Activity: KU812 cell line

| SMILES | Papp at 4 h [1] [×10⁻⁶ cm/s] | remaining at 10 min [2] [%] | solubility at 100 µM [3] [µM] | logD [4] | remaining at 1 h [5] [%] | DC50 [6] [nM] | Papp ([1]; pH 7.4, 4 h) [×10⁻⁶ cm/s] | Activity [6] |
| --- | --- | --- | --- | --- | --- | --- | --- | --- |
| Cn1cccc1C(=O)N1CCN(C(=O)Nc2ccc(N3CCC(C(=O)N4CCOCC4)CC3)cc2)CC1 | 0.21 | 92 | ≥ 95 | 2.25 | 83 | – | – | – |
| Cn1cccc1C(=O)N1CCN(C(=O)Nc2ccc(N3CCC(C(=O)N4CCN(c5cccc6c5C(=O)N(C5CCC(=O)NC5=O)C6=O)CC4)CC3)cc2)CC1 (stereo not drawn) | – | 93 | 37.4 (≈ 28.6 µg/mL) | 2.79 | 79 | 0.02 | 0.0007 | – |
| Cn1cccc1C(=O)N1CCN(C(=O)Nc2ccc(N3CCC(C(=O)N4CCN(c5ccc6c(c5)C(=O)N(C5CCC(=O)NC5=O)C6=O)CC4)CC3)cc2)CC1 (stereo not drawn) | 0.009 | 90 | 2.91 (≈ 2.22 µg/mL) | 2.65 | 72 | 0.02 | – | – |
| O=C1CCC(N2C(=O)c3cc(F)c(N4CCN(C(=O)C5CCN(c6ccc(NC(=O)c7cnc(Oc8ccccc8)nc7)cc6)CC5)CC4)cc3C2=O)C(=O)N1 (stereo not drawn) | 0.007 | 93 | < 0.5 | 3.5 | 69 | 0.147 | – | Dose-Dependent Effect |

Continued, values first:

| Papp at 4 h [1] [×10⁻⁶ cm/s] | remaining at 10 min [2] [%] | solubility at 100 µM [3] [µM] | logD [4] | remaining at 1 h [5] [%] | DC50 [6] [nM] | Papp ([1]; pH 7.4, 4 h) [×10⁻⁶ cm/s] | Activity [6] | SMILES |
| --- | --- | --- | --- | --- | --- | --- | --- | --- |
| 0.07 | 89 | 1.12 (≈ 0.832 µg/mL) | 3.39 | 75 | 0.036 | – | – | O=C1CCC(N2C(=O)c3cccc(N4CCN(C(=O)C5CCN(c6ccc(NC(=O)c7cnc(Oc8ccccc8)nc7)cc6)CC5)CC4)c3C2=O)C(=O)N1 (stereo not drawn) |
| 0.049 | 93 | < 0.5 | 3.33 | 80 | 0.175 | – | – | O=C1CCC(N2C(=O)c3ccc(N4CCN(C(=O)C5CCN(c6ccc(NC(=O)c7cnc(Oc8ccccc8)nc7)cc6)CC5)CC4)cc3C2=O)C(=O)N1 (stereo not drawn) |
| 3.01 | 96 | 3.17 (≈ 1.55 µg/mL) | 3.06 | 80 | – | – | – | O=C(Nc1ccc(N2CCC(C(=O)N3CCOCC3)CC2)cc1)c1cnc(Oc2ccccc2)nc1 |
| 0.2 | 89 | 7 (≈ 5.12 µg/mL) | 3 | 78 | 0.104 | – | Dose-Dependent Effect | O=C1CCC(c2ccc(NCC(=O)N3CCN(C(=O)C4CCN(c5ccc(NC(=O)c6cnc(Oc7ccccc7)nc6)cc5)CC4)CC3)cc2)C(=O)N1 (stereo not drawn) |
